Results: BindingDB's records for patent US20250092022 (Neurocrine Biosciences, 2025)

target: T1, Muscarinic acetylcholine receptor M4 (Homo sapiens, UniProt P08173); experiment: Binding Assay
T1 sequence (P08173 whole entry): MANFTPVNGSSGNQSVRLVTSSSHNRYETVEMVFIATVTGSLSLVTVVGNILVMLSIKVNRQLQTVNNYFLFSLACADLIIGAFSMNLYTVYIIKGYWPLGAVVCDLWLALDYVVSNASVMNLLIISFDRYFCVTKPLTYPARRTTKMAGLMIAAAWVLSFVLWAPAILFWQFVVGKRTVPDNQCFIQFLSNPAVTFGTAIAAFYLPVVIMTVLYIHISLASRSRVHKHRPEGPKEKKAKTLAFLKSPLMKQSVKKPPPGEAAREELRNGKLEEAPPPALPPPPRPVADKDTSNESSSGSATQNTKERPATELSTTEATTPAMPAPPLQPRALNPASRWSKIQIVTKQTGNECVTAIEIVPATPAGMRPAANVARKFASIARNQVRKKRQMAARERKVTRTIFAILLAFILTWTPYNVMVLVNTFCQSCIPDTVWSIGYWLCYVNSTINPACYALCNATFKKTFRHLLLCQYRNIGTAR
Experimental: Binding affinity (Ki) for the compounds was measured by inhibition of radioligand binding to membranes from CHO cells expressing human M4 receptor. Membranes were prepared by nitrogen cavitation and differential centrifugation as previously described (Hoare et al., Mol. Pharmacol. 2003 March; 63(3): 751-65). The radioligand employed was tritiated N-methylscopolamine, used at a concentration of 1.5 nM. A dose-response of twelve concentrations of compound was used, […]. The assay buffer was 50 mM HEPES, 100 mM NaCl, 5 mM MgCl2, 1 mM ethylenediaminetetraacetic acid, pH-adjusted to pH 7.4. Membranes, radioligand and compound were incubated together for 90 minutes at 37° C., in a total volume of 150 μL in a 96-well plate. Receptor-bound radioligand was then collected by harvesting the assay over glass fiber filters pretreated with polyethylenimine to trap the cell membranes, using rapid vacuum filtration. Harvesting and radioactivity counting was conducted as previously described (see, e.g., Hoare et al., Mol. Pharmacol. 2003 63(3):751-65); Erratum at Mol. Pharmacol. 2005 July; 68(1): 260).

Ki [nM]	SMILES
< 100	C[C@@H]1CN(c2ncc(S(=O)(=O)C3CC3)cn2)C[C@@H](C)N1C(=O)OC1CC2(C1)CN(Cc1ccccc1)C2 [US20250092022, Compound 19]
< 100	Cc1nc(N2C[C@@H](C)N(C(=O)OC3CC4(C3)CN(Cc3ccccc3)C4)[C@@H](C)C2)ncc1S(C)(=O)=O [US20250092022, Compound 40]
< 100	C[C@@H]1CN(c2ncc(S(=O)(=O)C(F)F)cn2)C[C@H](C)N1C(=O)OC1CC2(C1)CN(Cc1ccccc1)C2 [US20250092022, Compound 41]
> 500	C[C@@H]1CN(c2ncc(OCCO)cn2)C[C@H](C)N1C(=O)OC1CC2(C1)CN(Cc1ccccc1)C2 [US20250092022, Compound 52]
